# Measurements: PMC10604323, “Cannabidiol Modulates M-Type K^+ and Hyperpolarization-Activated Cation Currents” (Biomedicines, 2023)
# pIC50: −log10 of the molar value.
# Assays:
# [1] = tested on: T1, hyperpolarization-activated cation current (Ih) of GH3 cells; HCN2, HCN3, and a combination of HCN2 and HCN3; assay: whole-cell patch clamp; assay type: cell-based; conditions: Ca2+-free Tyrode's solution with 0.5 mM CdCl2 and 1 μM TTX, 2 s step from -40 to -110 mV, pH 7.4, 20-25 °C, native current
# T1 construct: native channels in GH3 cells; subunit composition not determined
# [2] = tested on: T2, M-type K+ current (IK(M)) of GH3 cells; KV7.2, KV7.3 and KV7.5 channels; assay: whole-cell patch clamp; assay type: cell-based; conditions: high-K+ Ca2+-free solution with 1 μM TTX, 1 s step from -50 to -10 mV, pH 7.4, 20-25 °C, native current
# T2 construct: gene Kcnq2; native channels in GH3 cells; subunit composition not determined
# Text: whole-cell patch clamp on M-type K+ current (IK(M)) of GH3 cells; KV7.2, KV7.3 and KV7.5 channels | concentration–response curve for the CBD-induced inhibition of the density of IK(M)
structure (smiles),measurement,setting,value
"C=C(C)[C@@H]1CCC(C)=C[C@H]1c1c(O)cc(CCCCC)cc1O [Cannabidiol, 2-[(1R,6R)-3-methyl-6-(prop-1-en-2-yl)cyclohex-2-en-1-yl]-5-pentylbenzene-1,3-diol]",pIC50,[1],5.48
same,pIC50,[2],5.44
